Test results published in patent US12303509B2, “Compounds for the treatment of BRAF-associated diseases and disorders” (Pfizer Inc., priority 2020, dated 2025).
Where a name gives a salt, the structure may show the parent alone.

Assays:
[1] = MDR1 LLC-PK1 and BCRP MDCKII permeability assay: permeability coefficient (Papp); assay type: in vitro ADME
Source text: (§1) Final organic concentration in the assay was 1%.

P-gp (MDR1) = P-gp (MDR1) (Homo sapiens (Human), UniProt P08183); test: MDR1 LLC-PK1 permeability assay: efflux ratio; assay type: in vitro ADME; conditions: pig
Sequence of P-gp (MDR1) (P08183 whole entry, species assumed): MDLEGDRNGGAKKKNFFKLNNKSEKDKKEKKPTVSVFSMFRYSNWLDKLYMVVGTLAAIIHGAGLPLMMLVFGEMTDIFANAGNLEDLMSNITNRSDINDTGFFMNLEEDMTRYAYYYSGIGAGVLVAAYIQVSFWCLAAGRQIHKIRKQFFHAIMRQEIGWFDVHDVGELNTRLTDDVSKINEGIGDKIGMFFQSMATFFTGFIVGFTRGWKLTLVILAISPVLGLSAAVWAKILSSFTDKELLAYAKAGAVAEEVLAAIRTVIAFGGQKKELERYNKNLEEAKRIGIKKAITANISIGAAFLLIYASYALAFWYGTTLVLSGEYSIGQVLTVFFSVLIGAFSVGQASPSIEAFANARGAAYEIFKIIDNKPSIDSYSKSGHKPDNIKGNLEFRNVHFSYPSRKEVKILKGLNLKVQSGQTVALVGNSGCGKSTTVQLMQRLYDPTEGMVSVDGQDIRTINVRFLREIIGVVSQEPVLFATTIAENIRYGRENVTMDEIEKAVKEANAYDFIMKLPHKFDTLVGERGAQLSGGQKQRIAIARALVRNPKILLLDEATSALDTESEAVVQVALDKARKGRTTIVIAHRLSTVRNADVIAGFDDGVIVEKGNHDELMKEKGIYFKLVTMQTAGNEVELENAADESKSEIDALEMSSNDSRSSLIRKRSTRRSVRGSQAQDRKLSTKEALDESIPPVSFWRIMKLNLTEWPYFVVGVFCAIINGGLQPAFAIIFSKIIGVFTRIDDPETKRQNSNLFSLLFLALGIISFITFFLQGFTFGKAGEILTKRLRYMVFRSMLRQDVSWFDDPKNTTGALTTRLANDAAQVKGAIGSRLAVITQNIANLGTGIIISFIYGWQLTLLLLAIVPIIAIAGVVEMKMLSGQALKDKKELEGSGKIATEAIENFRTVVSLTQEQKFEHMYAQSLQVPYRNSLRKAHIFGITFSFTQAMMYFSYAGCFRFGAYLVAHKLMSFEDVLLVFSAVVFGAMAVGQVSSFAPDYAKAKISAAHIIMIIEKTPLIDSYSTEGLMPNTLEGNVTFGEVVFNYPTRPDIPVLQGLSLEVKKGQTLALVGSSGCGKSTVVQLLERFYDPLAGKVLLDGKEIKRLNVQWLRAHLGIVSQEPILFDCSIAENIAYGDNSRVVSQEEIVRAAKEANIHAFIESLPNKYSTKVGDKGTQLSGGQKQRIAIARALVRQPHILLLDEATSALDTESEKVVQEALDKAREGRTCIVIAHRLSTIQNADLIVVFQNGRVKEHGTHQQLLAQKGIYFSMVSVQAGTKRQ
Source text: as §1

[2] = target: full-length FLAG-tagged B-Raf(V600E) (Homo sapiens (Human), UniProt P15056, V600E); test: BRAF V600E enzyme assay (TR-FRET competitive displacement); assay type: binding; conditions: averaged IC50; TR-FRET tracer displacement, 60 min
Sequence of full-length FLAG-tagged B-Raf(V600E) (P15056 whole entry V600E): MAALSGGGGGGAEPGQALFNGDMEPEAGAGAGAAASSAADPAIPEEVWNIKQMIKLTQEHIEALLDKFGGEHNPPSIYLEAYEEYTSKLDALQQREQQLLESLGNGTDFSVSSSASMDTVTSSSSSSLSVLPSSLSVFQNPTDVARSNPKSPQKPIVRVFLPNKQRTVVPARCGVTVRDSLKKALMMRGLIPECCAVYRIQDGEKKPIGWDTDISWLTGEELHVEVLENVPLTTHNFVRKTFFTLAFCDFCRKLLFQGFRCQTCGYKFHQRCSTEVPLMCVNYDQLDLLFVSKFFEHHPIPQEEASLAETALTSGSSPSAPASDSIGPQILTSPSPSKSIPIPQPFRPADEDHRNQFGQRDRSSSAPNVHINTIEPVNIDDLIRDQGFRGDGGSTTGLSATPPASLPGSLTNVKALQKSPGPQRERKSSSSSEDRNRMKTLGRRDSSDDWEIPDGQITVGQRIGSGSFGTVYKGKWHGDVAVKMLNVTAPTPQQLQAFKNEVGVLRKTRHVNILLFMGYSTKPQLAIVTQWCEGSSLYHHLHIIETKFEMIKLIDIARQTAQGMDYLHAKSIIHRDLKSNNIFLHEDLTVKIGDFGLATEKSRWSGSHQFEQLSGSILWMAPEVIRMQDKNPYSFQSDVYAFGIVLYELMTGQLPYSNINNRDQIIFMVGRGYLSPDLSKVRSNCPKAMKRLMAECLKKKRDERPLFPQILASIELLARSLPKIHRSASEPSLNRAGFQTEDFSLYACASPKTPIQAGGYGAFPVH
Procedure: A competitive displacement assay was configured for B-Raf that monitors the amount of a fluorescently-tagged “tracer” bound to B-Raf via TR-FRET from an anti-tag Eu-labeled antibody also bound to B-Raf. For full-length FLAG-tagged B-Raf(V600E), the assay mixtures consisted of 25 mM K^+HEPES, pH 7.4, 10 mM MgCl2, 0.01% Triton X-100, 1 mM DTT, 2% DMSO (from compound), 50 nM Tracer 1710 (ThermoFisher, PR9176A), 0.5 nM Eu anti-FLAG (M2)-cryptate Ab (Cisbio, 61FG2KLB) and 5 nM full-length, N-terminally FLAG-tagged B-Raf(V600E) (Origene Technologies, TP700031. Compounds were typically diluted in DMSO across an 11-point dosing range created using a 3-fold serial dilution protocol at a top dose of 10 μM. The assay was run in 384-well, polystyrene, low-volume, non-treated, white microtiter plates (Costar 4512) in a final volume of 12 μL. Low control wells included 1 μM of a potent B-Raf inhibitor as a control. The assays were incubated at ambient temperature (typically 22° C.) for 60 min and then read on a PerkinElmer EnVision microplate reader using standard TRF settings (λEx=320 nm, λEm=615 & 665 nm). The ratioed counts (665 nm/615 nm) were converted to percent of control (POC) using the following equation:
[formula] • where: • Xmax Average Uninhibited Controls • Xmin Average Background
A 4-parameter logistic model was the fit to the POC data for each compound. From that fit, the IC50 was estimated and is defined as the concentration of compound at which the best-fit curve crosses 50 POC.

BCRP = BCRP (Homo sapiens (Human), UniProt Q9UNQ0); test: BCRP MDCKII permeability assay: efflux ratio; assay type: in vitro ADME; conditions: dog
Sequence of BCRP (Q9UNQ0 whole entry): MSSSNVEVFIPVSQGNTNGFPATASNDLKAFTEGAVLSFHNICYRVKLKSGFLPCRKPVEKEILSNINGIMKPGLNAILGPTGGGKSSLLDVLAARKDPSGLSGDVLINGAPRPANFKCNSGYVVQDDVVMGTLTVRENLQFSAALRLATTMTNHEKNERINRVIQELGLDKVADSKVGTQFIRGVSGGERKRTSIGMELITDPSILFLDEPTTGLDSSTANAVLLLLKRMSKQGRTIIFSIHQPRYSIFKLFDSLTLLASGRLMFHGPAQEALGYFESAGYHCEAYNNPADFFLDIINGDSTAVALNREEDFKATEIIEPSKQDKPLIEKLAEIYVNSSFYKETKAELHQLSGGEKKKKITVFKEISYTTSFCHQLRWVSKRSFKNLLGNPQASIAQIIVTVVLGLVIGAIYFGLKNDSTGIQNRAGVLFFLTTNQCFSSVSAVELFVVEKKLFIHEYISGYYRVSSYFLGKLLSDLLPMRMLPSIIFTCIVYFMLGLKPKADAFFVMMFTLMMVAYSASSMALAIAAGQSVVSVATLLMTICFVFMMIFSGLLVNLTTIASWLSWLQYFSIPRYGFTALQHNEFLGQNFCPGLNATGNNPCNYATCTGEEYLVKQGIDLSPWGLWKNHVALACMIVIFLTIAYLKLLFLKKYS

A375 cells = test: Cellular phospho-ERK inhibition assay in A375 cells; assay type: cell-based; conditions: Homo sapiens, A-375, A375 cells (head prints A357), 2 hours treatment, read-out: A357 cell IC50
Procedure: A375 and H1755 cells were obtained from the American Type Culture Collection (ATCC, Rockville, MD). A375 cells were maintained in DMEM growth medium containing 10% FBS. H1755 cells were maintained in RPMI growth medium containing 10% FBS.
Cells were harvested according to standard protocols, counted and plated onto flat-bottom, 96-well tissue culture plates (Costar #3599) at 2.5×10^4 cells/well for A375 cells and 1.5×10^4 cells/well for H1755 cells in 100 μL/well of growth medium containing 10% FBS. After an overnight incubation at 37° C. with 5% CO2 cells were treated for 2 hours at 37° C., 5% CO2 with compounds prepared as a 9-point, 1:3.33 fold dilution series with final compound concentrations ranging from 66 pM-10 μM and a constant DMSO concentration of 0.25%. Control wells contained either 0.25% DMSO alone (uninhibited control) or 10 μM binimetinib (complete inhibition control). The levels of phosphorylated ERK are determined using an In Cell Western protocol: following compound incubation, growth medium was discarded, and cells were fixed with 0.4% formaldehyde in PBS for 20 minutes at room temperature. Cells were permeabilized with 100% methanol for 10 minutes at room temperature. Plates were washed with PBS containing 0.05% Tween-20 and blocked for 1 hour at room temperature with LI-COR Blocking Buffer (LI-COR Biosciences; Cat #927-40000). Plates were then incubated for 2 hours at room temperature with 50 μL of a 1:400 dilution of anti-phospho-ERK1/2 (Thr202/Tyr204) (Cell Signaling; Cat #9101) and a 1:1000 dilution of anti-GAPDH (Millipore; Cat #MAB374) in LI-COR blocking buffer containing 0.05% Tween-20. Plates were washed with PBS containing […] Tween-20 then incubated at room temperature for 1 hour with 50 μL of a 1:1000 dilution of anti-rabbit AlexaFluor 680 (Life Technologies; Cat #A21109) and a 1:1000 dilution of anti-mouse IRDye 800CW (LI-COR; Cat #926-32210) in LI-COR blocking buffer containing 0.05% Tween-20. Plates were analyzed by reading on an Odyssey CLx infrared scanner. For each well, the phospho-ERK signal was normalized to the GAPDH signal and converted to POC using the following equation:
[formula] • Where: • Xmax Average Uninhibited Controls • Xmin Average Complete Inhibition Controls IC50 values were then calculated using a 4-parameter fit in XLfit software and are provided in Table A1.

| Compound | Papp at 2 h, 1 µM [1] [×10⁻⁶ cm/s] | efflux ratio at 2 h, 1 µM (P-gp (MDR1)) | IC50 [2] [µM] | efflux ratio at 2 h, 1 µM (BCRP) | IC50 (A375 cells) [µM] |
| --- | --- | --- | --- | --- | --- |
| Cc1c(Nc2c(F)ccc(NS(=O)(=O)N3CC4CC4(C)C3)c2Cl)ccc2ncn(C)c(=O)c12 (stereo not drawn) [Example 88] | 25 | 1.2 | 0.027 | 0.6 | 0.203 |
| Cc1c(Nc2c(F)ccc(NS(=O)(=O)N3CCCCC3)c2Cl)ccc2ncn(C)c(=O)c12 [Example 84, N-(2-chloro-3-((3,5-dimethyl-4-oxo-3,4-dihydroquinazolin-6-yl)amino)-4-fluorophenyl)piperidine-1-sulfonamide] | 18 | 0.8 | 0.053 | 0.8 | 0.133 |
| CCOC1CN(S(=O)(=O)Nc2ccc(F)c(Nc3ccc4ncn(C)c(=O)c4c3F)c2Cl)C1 [Example 142, N-(2-chloro-4-fluoro-3-((5-fluoro-3-methyl-4-oxo-3,4-dihydroquinazolin-6-yl)amino)phenyl)-3-ethoxyazetidine-1-sulfonamide] | 21 | 3.2 | 0.024 | 2.5 | 0.02 |
| CO[C@H]1CN(S(=O)(=O)Nc2ccc(F)c(Nc3ccc4ncn(C)c(=O)c4c3C)c2Cl)C[C@@H]1F (relative stereo) [Example 78, (trans)-N-(2-chloro-3-((3,5-dimethyl-4-oxo-3,4-dihydroquinazolin-6-yl)amino)-4-fluorophenyl)-3-fluoro-4-methoxypyrrolidine-1-sulfonamide] | 34 | 1.5 | 0.114 | 1 | 0.189 |
| COCC1CN(S(=O)(=O)Nc2ccc(F)c(Oc3ccc4ncn(C)c(=O)c4c3C)c2Cl)C1 [Example 115, N-(2-chloro-3-((3,5-dimethyl-4-oxo-3,4-dihydroquinazolin-6-yl)oxy)-4-fluorophenyl)-3-(methoxymethyl)azetidine-1-sulfonamide] | 28 | 1.6 | 0.01 | 1.5 | 0.021 |
| Cc1c(Nc2c(F)ccc(NS(=O)(=O)N3CC4(CC4)C3)c2Cl)ccc2ncn(C)c(=O)c12 [Example 163, N-(2-chloro-3-((3,5-dimethyl-4-oxo-3,4-dihydroquinazolin-6-yl)amino)-4-fluorophenyl)-5-azaspiro[2.3]hexane-5-sulfonamide trifluoroacetate] | 23 | 1.9 | 0.008 | 1.4 | 0.179 |
| Cc1c(Nc2c(F)ccc(NS(=O)(=O)N3CC(COC(F)F)C3)c2Cl)ccc2ncn(C)c(=O)c12 [Example 137, N-(2-chloro-3-((3,5-dimethyl-4-oxo-3,4-dihydroquinazolin-6-yl)amino)-4-fluorophenyl)-3-((difluoromethoxy)methyl)azetidine-1-sulfonamide trifluoroacetate] | 36 | 2 | 0.008 | 1.5 | 0.037 |
| Cc1c(Nc2c(F)ccc(NS(=O)(=O)N3CCC4(CC4)C3)c2Cl)ccc2ncn(C)c(=O)c12 [Example 82, N-(2-chloro-3-((3,5-dimethyl-4-oxo-3,4-dihydroquinazolin-6-yl)amino)-4-fluorophenyl)-5-azaspiro[2.4]heptane-5-sulfonamide trifluoroacetate] | 13 | 1.2 | 0.069 | 1 | 0.193 |
| COCC1(C)CN(S(=O)(=O)Nc2ccc(F)c(Nc3ccc4ncn(C)c(=O)c4c3C)c2Cl)C1 [Example 140, N-(2-chloro-3-((3,5-dimethyl-4-oxo-3,4-dihydroquinazolin-6-yl)amino)-4-fluorophenyl)-3-(methoxymethyl)-3-methylazetidine-1-sulfonamide trifluoroacetate] | 48 | 1.2 | 0.016 | 0.8 | 0.052 |
| COC1CN(S(=O)(=O)Nc2ccc(F)c(Oc3ccc4ncn(C)c(=O)c4c3F)c2Cl)C1 [Example 123, N-(2-chloro-4-fluoro-3-((5-fluoro-3-methyl-4-oxo-3,4-dihydroquinazolin-6-yl)oxy)phenyl)-3-methoxyazetidine-1-sulfonamide] | 32 | 2.5 | 0.004 | 5.4 | 0.005 |
| CCOC1CN(S(=O)(=O)Nc2ccc(F)c(Nc3ccc4ncn(C)c(=O)c4c3Cl)c2Cl)C1 [Example 141, N-(2-chloro-3-((5-chloro-3-methyl-4-oxo-3,4-dihydroquinazolin-6-yl)amino)-4-fluorophenyl)-3-ethoxyazetidine-1-sulfonamide] | 29 | 1.7 | 0.02 | 2.2 | 0.023 |
| COCC1(F)CN(S(=O)(=O)Nc2ccc(F)c(Nc3ccc4ncn(C)c(=O)c4c3C)c2Cl)C1 [Example 145, N-(2-chloro-3-((3,5-dimethyl-4-oxo-3,4-dihydroquinazolin-6-yl)amino)-4-fluorophenyl)-3-fluoro-3-(methoxymethyl)azetidine-1-sulfonamide trifluoroacetate] | 29 | 2.6 | 0.006 | 2.4 | 0.025 |
| Cn1cnc2ccc(Nc3c(F)ccc(NS(=O)(=O)N4CC5(CCC5)C4)c3Cl)c(F)c2c1=O [Example 159, N-(2-chloro-4-fluoro-3-((5-fluoro-3-methyl-4-oxo-3,4-dihydroquinazolin-6-yl)amino)phenyl)-2-azaspiro[3.3]heptane-2-sulfonamide trifluoroacetate] | 33 | 1.8 | 0.008 | 1.1 | 0.09 |
| Cc1c(Oc2c(F)ccc(NS(=O)(=O)N3CC(F)C3)c2Cl)ccc2ncn(C)c(=O)c12 [Example 116, N-(2-chloro-3-((3,5-dimethyl-4-oxo-3,4-dihydroquinazolin-6-yl)oxy)-4-fluorophenyl)-3-fluoroazetidine-1-sulfonamide] | 34 | 2.7 | 0.004 | 2.1 | 0.015 |
| Cc1c(Nc2c(F)ccc(NS(=O)(=O)N3C[C@H](F)[C@@H](F)C3)c2Cl)ccc2ncn(C)c(=O)c12 (relative stereo) [Example 85, (trans)-N-(2-chloro-3-((3,5-dimethyl-4-oxo-3,4-dihydroquinazolin-6-yl)amino)-4-fluorophenyl)-3,4-difluoropyrrolidine-1-sulfonamide] | 26 | 1.7 | 0.052 | 0.9 | 0.178 |
